The source of these data is ChEMBL document CHEMBL5131540, “Optimizing Shape Complementarity Enables the Discovery of Potent Tricyclic BCL6 Inhibitors” (J Med Chem, 2022).

A short description of data set [1]: Kinetic aqueous solubility of the compound in 4% DMSO/HEPES buffer at pH 8 incubated for 20 hrs by NMR analysis. Type of data set: physicochemical. As to conditions: read-out: Kinetic_solubility.
Data set [2] in a line: in vitro. Conditions: PAMPA, pH 7.4.
Description: Permeability of the compound at pH 7.4 by PAMPA

Values after ≈ are worked out from the molar mass of the structure shown.

In the case of `C[C@@H]1CCOc2c(c3cc(Nc4ccnc(Cl)c4C#N)ccc3n(C)c2=O)N1`, the solubility kinetic at 20 h in data set [1] is 190 µM (≈ 75.2 µg/mL).

Regarding `CCNc1cc(=O)[nH]c2ccc(Nc3ccnc(Cl)c3C#N)cc12`, the Papp in data set [2] was below 1 nm/s.
